Assay results from patent US7851474B2, “Dipiperazinyl ketones and related analogues” (Neurogen Corporation, priority 2005, dated 2010).

molecular target: T1, chimeric human H3 receptor (Homo sapiens, UniProt Q9Y5N1, E19D); assay: Chimeric human H3 receptor GTP binding assay (agonist-stimulated GTP-gamma35S binding, Example 7); assay type: biochemical; details: not given
T1 construct: made in house; host or cells: Sf9 insect cells (baculovirus infection); P2 membrane preparation
Method in brief: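 Sf9 membranes co-expressing the chimeric receptor and heterotrimeric G-protein subunits, 35 μg protein per tube, in pH 7.4 Tris buffer with 10 μM GDP. Test compounds at 10^−10 to 10^−6 M with 1 μM histamine, 60 min at room temperature. Filter-bound GTP-gamma^35S read by scintillation; IC50 from non-linear regression of dose-response curves.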

T1 sequence (Q9Y5N1 with tags, fused parts or gaps E19D): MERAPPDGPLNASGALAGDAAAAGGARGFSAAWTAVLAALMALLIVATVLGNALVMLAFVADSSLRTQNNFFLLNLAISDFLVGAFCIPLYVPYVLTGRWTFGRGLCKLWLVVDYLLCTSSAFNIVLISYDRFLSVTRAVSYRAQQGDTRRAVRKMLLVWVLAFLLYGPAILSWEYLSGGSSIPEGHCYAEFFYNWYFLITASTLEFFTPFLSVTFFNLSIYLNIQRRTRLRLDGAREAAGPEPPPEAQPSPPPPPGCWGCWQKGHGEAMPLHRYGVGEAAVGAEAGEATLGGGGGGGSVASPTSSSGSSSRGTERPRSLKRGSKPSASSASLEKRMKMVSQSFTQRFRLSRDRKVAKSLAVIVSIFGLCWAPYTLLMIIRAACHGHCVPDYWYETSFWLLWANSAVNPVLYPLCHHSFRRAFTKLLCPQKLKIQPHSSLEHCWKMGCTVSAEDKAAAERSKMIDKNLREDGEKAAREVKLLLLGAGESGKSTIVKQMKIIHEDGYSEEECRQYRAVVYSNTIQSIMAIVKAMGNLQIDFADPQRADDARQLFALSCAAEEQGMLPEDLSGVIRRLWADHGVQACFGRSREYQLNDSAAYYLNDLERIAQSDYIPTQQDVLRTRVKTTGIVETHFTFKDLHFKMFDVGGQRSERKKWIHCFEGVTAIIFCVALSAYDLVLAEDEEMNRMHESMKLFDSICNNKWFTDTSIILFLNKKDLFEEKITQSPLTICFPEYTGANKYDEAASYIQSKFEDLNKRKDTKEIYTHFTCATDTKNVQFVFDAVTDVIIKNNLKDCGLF

Question: For `CC(=O)C1(c2ccccc2)CCN(CC(=O)N2CCN(C3CCC3)CC2)CC1` [Compound 478, 1-{1-[2-(4-cyclobutylpiperazin-1-yl)-2-oxoethyl]-4-phenylpiperidin-4-yl}ethanone], which Ki is on record?
Answer: < 1000 nM

Question: `C=CCN1CCN(C(=O)CN2CCN(c3ccc(C(F)(F)F)cc3)CC2)CC1` [Compound 487, 1-allyl-4-({4-[4-(trifluoromethyl)phenyl]piperazin-1-yl}acetyl)piperazine] was tested. Which Ki did it give?
Answer: < 1000 nM

Question: How did the Ki turn out when `CCCCN1CCN(C(=O)CN2CCN(c3ccc(C(F)(F)F)cc3)CC2)CC1` [Compound 496, 1-butyl-4-({4-[4-(trifluoromethyl)phenyl]piperazin-1-yl}acetyl)piperazine] was run?
Answer: < 1000 nM

same assay, conditions: "*" in Ki of Table II; assay of Example 7; read-out: Ki

Question: Which Ki does the source give for `CC(C)N1CCN(C(=O)CN2CCN(c3ccc(C(F)(F)F)cn3)CC2C)CC1` (stereo not drawn) [Compound 445, 1-[2-(4-isopropylpiperazin-1-yl)-2-oxoethyl]-2-methyl-4-[5-(trifluoromethyl)pyridin-2-yl]piperazine] here?
Answer: < 1000 nM

Question: `CC(C)N1CCN(C(=O)CN2CCC(N(C)C)C2)CC1` (stereo not drawn) [Compound 446, 1-[2-(4-isopropylpiperazin-1-yl)-2-oxoethyl]-N,N-dimethylpyrrolidin-3-amine] was tested. Which Ki did it give?
Answer: < 1000 nM

Question: How did the Ki turn out when `CCC(C)N1CCN(C(=O)CN2CCC(N3CCCCC3)CC2)CC1` (stereo not drawn) [Compound 447] was run?
Answer: < 1000 nM

Question: Which Ki does the source give for `CCC(C)N1CCN(C(=O)CN2CCC(N3CCC(C)CC3)CC2)CC1` (stereo not drawn) [Compound 448, 1′-[2-(4-sec-butylpiperazin-1-yl)-2-oxoethyl]-4-methyl-1,4-bipiperidine] here?
Answer: < 1000 nM

Question: Which Ki does the source give for `CCCN(CC1CC1)C1CCN(CC(=O)N2CCN(C(C)CC)CC2)CC1` (stereo not drawn) [Compound 449, 1-[2-(4-sec-butylpiperazin-1-yl)-2-oxoethyl]-N-(cyclopropylmethyl)-N-propylpiperidin-4-amine] here?
Answer: < 1000 nM

Question: Which Ki does the source give for `CCCN(CCC)C1CCN(CC(=O)N2CCN(C(C)CC)CC2)CC1` (stereo not drawn) [Compound 450, 1-[2-(4-sec-butylpiperazin-1-yl)-2-oxoethyl]-N,N-dipropylpiperidin-4-amine] here?
Answer: < 1000 nM

Question: For `CC1CN(c2ccc(C(F)(F)F)cn2)CCN1CC(=O)N1CCN(C(C)(C)C)CC1` (stereo not drawn) [Compound 451, 1-[2-(4-tert-butylpiperazin-1-yl)-2-oxoethyl]-2-methyl-4-[5-(trifluoromethyl)pyridin-2-yl]piperazine], which Ki is on record?
Answer: < 1000 nM

Question: For `O=C(CN1CCN(c2ccc(-c3cc(C(F)(F)F)ccc3Cl)cc2)CC1)N1CCN(C2CCC2)CC1` [Compound 453, 1-[2′-chloro-5′-(trifluoromethyl)biphenyl-4-yl]-4-[2-(4-cyclobutylpiperazin-1-yl)-2-oxoethyl]piperazine], which Ki is on record?
Answer: < 1000 nM

Question: `CC(=O)c1cccc(-c2cnc(N3CCN(CC(=O)N4CCN(C5CCC5)CC4)CC3)cn2)c1` [Compound 454, 1-[3-(5-{4-[2-(4-cyclobutylpiperazin-1-yl)-2-oxoethyl]piperazin-1-yl}pyrazin-2-yl}phenyl]ethanone] was tested. Which Ki did it give?
Answer: < 1000 nM

Question: With `CC(=O)c1cccc(-c2ccc(N3CCN(CC(=O)N4CCN(C5CCC5)CC4)CC3)nn2)c1` [Compound 455, 1-[3-(6-{4-[2-(4-cyclobutylpiperazin-1-yl)-2-oxoethyl]piperazin-1-yl}pyridazin-3-yl)phenyl]ethanone] as the compound, how does the Ki read?
Answer: < 1000 nM

Question: `O=C(CN1CCN(c2ccc(-c3cc(C(F)(F)F)cc(C(F)(F)F)c3)cc2)CC1)N1CCN(C2CCC2)CC1` [Compound 457, 1-[3′,5′-bis(trifluoromethyl)biphenyl-4-yl]-4-[2-(4-cyclobutylpiperazin-1-yl)-2-oxoethyl]piperazine] was tested. Which Ki did it give?
Answer: < 1000 nM

Question: For `O=C(CN1CCN(c2ccc(-c3ccc4c(c3)OCO4)cc2)CC1)N1CCN(C2CCC2)CC1` [Compound 458, 1-[4-(1,3-benzodioxol-5-yl)phenyl]-4-[2-(4-cyclobutylpiperazin-1-yl)-2-oxoethyl]piperazine], which Ki is on record?
Answer: < 1000 nM

Question: With `CC(=O)c1ccc(-c2ccc(N3CCN(CC(=O)N4CCN(C5CCC5)CC4)CC3)nn2)cc1` [Compound 459, 1-[4-(6-{4-[2-(4-cyclobutylpiperazin-1-yl)-2-oxoethyl]piperazin-1-yl}pyridazin-3-yl)phenyl]ethanone] as the compound, how does the Ki read?
Answer: < 1000 nM

Question: With `O=C(CN1CCN(c2ccc(S(=O)(=O)Cc3ccccc3)cc2)CC1)N1CCN(C2CCC2)CC1` [Compound 460, 1-[4-(benzylsulfonyl)phenyl]-4-[2-(4-cyclobutylpiperazin-1-yl)-2-oxoethyl]piperazine] as the compound, how does the Ki read?
Answer: < 1000 nM

Question: Which Ki does the source give for `CC(=O)c1ccc(N2CCN(CC(=O)N3CCN(C4CCC4)CC3)CC2)cc1C(F)(F)F` [Compound 461, 1-[4-{4-[2-(4-cyclobutylpiperazin-1-yl)-2-oxoethyl]piperazin-1-yl}-2-(trifluoromethyl)phenyl] ethanone] here?
Answer: < 1000 nM

Question: Which Ki does the source give for `CC(=O)c1ccc(N2CCN(CC(=O)N3CCN(C4CCC4)CC3)CC2)c(C(F)(F)F)c1` [Compound 462, 1-[4-{4-[2-(4-cyclobutylpiperazin-1-yl)-2-oxoethyl]piperazin-1-yl}-3-(trifluoromethyl)phenyl] ethanone] here?
Answer: < 1000 nM

Question: How did the Ki turn out when `O=C(CN1CCN(c2ccc(-c3ccc(Cl)c(C(F)(F)F)c3)cc2)CC1)N1CCN(C2CCC2)CC1` [Compound 463, 1-[4′-chloro-3′-(trifluoromethyl)biphenyl-4-yl]-4-[2-(4-cyclobutylpiperazin-1-yl)-2-oxoethyl]piperazine] was run?
Answer: < 1000 nM

Question: For `O=C(CN1CCN(c2ccc(Cl)c(C(F)(F)F)c2)CC1)N1CCN(C2CCC2)CC1` [Compound 464, 1-[4-chloro-3-(trifluoromethyl)phenyl]-4-[2-(4-cyclobutylpiperazin-1-yl)-2-oxoethyl]piperazine], which Ki is on record?
Answer: < 1000 nM

Question: For `O=C(CN1CCN(c2ccc(Cl)c(C(F)(F)F)c2)CC1)N1CCN(C2CCCC2)CC1` [Compound 466, 1-[4-chloro-3-(trifluoromethyl)phenyl]-4-[2-(4-cyclopentylpiperazin-1-yl)-2-oxoethyl]piperazine], which Ki is on record?
Answer: < 1000 nM

Question: With `CC(C)N1CCN(C(=O)CN2CCN(c3ccc(Cl)c(C(F)(F)F)c3)CC2)CC1` [Compound 467, 1-[4-chloro-3-(trifluoromethyl)phenyl]-4-[2-(4-isopropylpiperazin-1-yl)-2-oxoethyl]piperazine] as the compound, how does the Ki read?
Answer: < 1000 nM

Question: `CC(C)N1CCN(C(=O)CN2CCN(c3ccc(F)c(C(F)(F)F)c3)CC2)CC1` [Compound 468, 1-[4-fluoro-3-(trifluoromethyl)phenyl]-4-[2-(4-isopropylpiperazin-1-yl)-2-oxoethyl]piperazine] was tested. Which Ki did it give?
Answer: < 1000 nM

Question: For `O=C(CN1CCC(N2CCCCCC2)CC1)N1CCN(C2CCC2)CC1` [Compound 479, 1-{1-[2-(4-cyclobutylpiperazin-1-yl)-2-oxoethyl]piperidin-4-yl}azepane], which Ki is on record?
Answer: < 1000 nM

Question: `O=C(CN1CCC(N2CCCCCC2)CC1)N1CCN(C2CCCCC2)CC1` [Compound 480, 1-{1-[2-(4-cyclohexylpiperazin-1-yl)-2-oxoethyl]piperidin-4-yl}azepane] was tested. Which Ki did it give?
Answer: < 1000 nM

Question: Which Ki does the source give for `CCC(C)N1CCN(C(=O)CN2CCC(N3CCCCCC3)CC2)CC1` (stereo not drawn) [Compound 481, 1-{1-[2-(4-sec-butylpiperazin-1-yl)-2-oxoethyl]piperidin-4-yl}azepane] here?
Answer: < 1000 nM

Question: With `CC(=O)N1CCN(CC(=O)N2CCN(C3CCC3)CC2)CC1` [Compound 483, 1-acetyl-4-[2-(4-cyclobutylpiperazin-1-yl)-2-oxoethyl]piperazine] as the compound, how does the Ki read?
Answer: < 1000 nM

Question: Which Ki does the source give for `CC(=O)N1CCN(CC(=O)N2CCN(C3CCCCC3)CC2)CC1` [Compound 484, 1-acetyl-4-[2-(4-cyclohexylpiperazin-1-yl)-2-oxoethyl]piperazine] here?
Answer: < 1000 nM

Question: How did the Ki turn out when `CC(=O)N1CCN(CC(=O)N2CCN(C3CCCC3)CC2)CC1` [Compound 485, 1-acetyl-4-[2-(4-cyclopentylpiperazin-1-yl)-2-oxoethyl]piperazine] was run?
Answer: < 1000 nM

Question: For `O=C(N1CCN(C2CCC2)CC1)N1CCC2(CC1)C(=O)N(Cc1ccccc1)c1ccccc12` [Compound 488, 1-benzyl-1′-[(4-cyclobutylpiperazin-1-yl)carbonyl]spiro[indole-3,4′-piperidin]-2(1H)-one], which Ki is on record?
Answer: < 1000 nM

Question: With `O=C(N1CCN(C2CCCC2)CC1)N1CCC2(CC1)C(=O)N(Cc1ccccc1)c1ccccc12` [Compound 489, 1-benzyl-1′-[(4-cyclopentylpiperazin-1-yl)carbonyl]spiro[indole-3,4′-piperidin]-2(1H)-one] as the compound, how does the Ki read?
Answer: < 1000 nM

Question: `O=C(CN1CCC2(CC1)CN(Cc1ccccc1)c1cccnc12)N1CCN(C2CCC2)CC1` [Compound 490, 1′-benzyl-1-[2-(4-cyclobutylpiperazin-1-yl)-2-oxoethyl]-1′,2′-dihydrospiro[piperidine-4,3′-pyrrolo[3,2-b]pyridine]] was tested. Which Ki did it give?
Answer: < 1000 nM

Question: With `O=C(CN1CCC2(CC1)C(=O)N(Cc1ccccc1)c1cccnc12)N1CCN(C2CCC2)CC1` [Compound 492, 1′-benzyl-1-[2-(4-cyclobutylpiperazin-1-yl)-2-oxoethyl]spiro[piperidine-4,3′-pyrrolo[3,2-b]pyridin]-2′(1′H)-one] as the compound, how does the Ki read?
Answer: < 1000 nM

Question: How did the Ki turn out when `O=C(CN1CCN(c2cccc(-c3ccccc3)c2)CC1)N1CCN(C2CCC2)CC1` [Compound 493, 1-biphenyl-3-yl-4-[2-(4-cyclobutylpiperazin-1-yl)-2-oxoethyl]piperazine] was run?
Answer: < 1000 nM

Question: How did the Ki turn out when `O=C(CN1CCN(c2ccc(-c3ccccc3)cc2)CC1)N1CCN(C2CCC2)CC1` [Compound 494, 1-biphenyl-4-yl-4-[2-(4-cyclobutylpiperazin-1-yl)-2-oxoethyl]piperazine] was run?
Answer: < 1000 nM

Question: Which Ki does the source give for `O=C(Cc1c(Cl)ccc(Cl)c1Cl)N1CCN(CC(=O)N2CCN(C3CCC3)CC2)CC1` [Compound 501, 1-cyclobutyl-4-({4-[(2,3,6-trichlorophenyl)acetyl]piperazin-1-yl}acetyl)piperazine] here?
Answer: < 1000 nM

Question: `COc1ccc(CC(=O)N2CCN(CC(=O)N3CCN(C4CCC4)CC3)CC2)c(OC)c1` [Compound 507, 1-cyclobutyl-4-({4-[(2,4-dimethoxyphenyl)acetyl]piperazin-1-yl}acetyl)piperazine] was tested. Which Ki did it give?
Answer: < 1000 nM

same assay, conditions: assay of Example 7; symbol * in column headed Ki of Table II; read-out: Ki

Question: `CN(C)C1CCN(CC(=O)N2CCN(C3CCCC3)CC2)C1` (stereo not drawn) [Compound 444, 1-[2-(4-cyclopentylpiperazin-1-yl)-2-oxoethyl]-N,N-dimethylpyrrolidin-3-amine] was tested. Which Ki did it give?
Answer: < 1000 nM
